In brackets after ≈: the same amount, converted by molar mass.
What was measured:
[1] = test system: Setaria faberi (Giant Foxtail); assay: Herbicidal efficacy against giant foxtail (green fresh weight, percent control); assay type: in vivo
Procedure: (§1) Aqueous solutions of the benzethonium salts of each sulfonylurea were prepared with and without 0.25% by weight of the nonionic surfactant polyoxyethylene (20) monolaurate (Tween 20®, trademark of ICI), based upon 100% total weight of aqueous solution. The aqueous solutions were sprayed onto giant foxtail (Setaria faberi) and large crabgrass (Digitaria sanguinalis) with a spray volume of 187 L/ha (liters/hectare). The active amount of each salt applied in grams/hectare (g/ha) is shown in Table 2 with respect to giant foxtail and Table 3 with respect to large crabgrass. The plants were evaluated two weeks after treatment with the aqueous solution by obtaining their green fresh weights and comparing these weights to an untreated control treatment to compute percent control values. Six replications were made of each treatment. All data were analyzed using a Fisher's Least Significant Difference (L.S.D.) Test at the 0.05 level.
(§2) Aqueous solutions were prepared with 75% concentrated, water-dispersible granules (75 DF) of nicosulfuron and rimsulfuron available as Accent® herbicide and Titus® herbicide (trademarks of DuPont) with or without 0.25% by weight of Tween 20®. These aqueous solutions were tested against giant foxtail (Setaria faberi) and large crabgrass (Digitaria sanguinalis) as described in Example 4.

[2] = test system: Digitaria sanguinalis (Large Crabgrass); assay: Herbicidal efficacy against large crabgrass (green fresh weight, percent control); assay type: in vivo
Procedure: as §1, §2

Aspergillus niger = details: 6 days, Czapek solution agar
Source text: A. niger ATCC #16404 was contacted with each sulfonylurea salt for 6 days in a Czapek solution agar.

[3] = Aging / storage stability: relative decomposition of the sulfonylurea by HPLC; assay type: physicochemical; details: 10080 min
Procedure: Into 7.8 g of epoxidized soybean oil (ESBO) was added with stirring: 1.18 g methyl 3-[[[[(4-methoxy-6-methyl-1,3,5-triazin-2-yl)amino]carbonyl]amino]sulfonyl]-2-thiophenecarboxylate tech (98.1%), 1.31 g of anhydrous diisobutylphenoxy ethoxyethyl dimethylbenzyl ammonium chloride in H2 O (Hyamine 1622™), 0.11 g Ca(OH)2, and 0.03 g calcium acetate.
In a vial was vortexed the following: 0.214 g methyl 2-[[[[[(4,6-dimethoxy-2-pyrimidinyl)amino]carbonyl]amino]sulfonyl]methyl]benzoate (98.3%),0.192 g of a 25% aqueous solution of tetramethyl ammonium hydroxide, and 4.32 g of water to produce the sulfonylurea quaternary salt.

[4] = Aging in deionized water: relative degradation of the sulfonylurea by HPLC; assay type: physicochemical; details: saturated in deionized water (500 ppm), 25° C. for 30 days
Procedure: Deionized water (5 g) was saturated with 2-[[[[(4,6-dimethoxy-2-pyrimidinyl)amino]carbonyl]amino]sulfonyl]-N,N-dimethyl-3-pyridinecarboxamide tech (500 ppm) and aged at 25° C. for 30 days.

physchem = details: water, pH 7, water
[5] = Hydrolytic stability in aqueous solution by HPLC (storage at room temperature for 36 days); assay type: physicochemical; details: 100 ppm in deionized water, after 36 days, read-out: percentage of material present after storage
Procedure: Aqueous solutions containing 100 ppm of nicosulfuron or its benzethonium salt were prepared with deionized water and stored at room temperature for 36 days. The solutions were analyzed by HPLC with an Inersil ODS2 column and an ultraviolet detector at a wavelength of 254 nm. The mobile phase through the column consisted of acetonitrile and water at a 1:1 volume ratio. The flow rate through the column was 1 ml/min.

[6] = Solubility in epoxidized soybean oil, methyl caprylate/caprate, and cottonseed oil

## CC(C)(C)CC(C)(C)c1ccc(OCCOCC[N+](C)(C)Cc2ccccc2)cc1.CCS(=O)(=O)c1cccnc1S(=O)(=O)[N-]C(=O)Nc1nc(OC)cc(OC)n1 [Benzethonium salt of rimsulfuron]
[1]; 3 g/ha, 0.25% Tween 20, two weeks after treatment
  % Control: 95%
[1]; 3 g/ha, no nonionic surfactant, two weeks after treatment
  % Control: 25%
[2]; 10 g/ha, 0.25% Tween 20, two weeks after treatment
  % Control: 94%
[2]; 10 g/ha, no nonionic surfactant, two weeks after treatment
  % Control: 58%
Aspergillus niger
  Minimum Effective Concentration: 100-300 ppm

## CC(C)(C)CC(C)(C)c1ccc(OCCOCC[N+](C)(C)Cc2ccccc2)cc1.COC(=O)c1ccccc1S(=O)(=O)[N-]C(=O)Nc1nc(C)nc(OC)n1 [Benzethonium salt of metsulfuron-methyl]
Aspergillus niger
  Minimum Effective Concentration: 300-1000 ppm

## CC(C)(C)CC(C)(C)c1ccc(OCCOCC[N+](C)(C)Cc2ccccc2)cc1.COc1cc(OC)nc(NC(=O)[N-]S(=O)(=O)c2ncccc2C(=O)N(C)C)n1 [Benzethonium salt of nicosulfuron]
[1]; 6 g/ha, 0.25% Tween 20, two weeks after treatment
  % Control: 97%
[1]; 6 g/ha, no nonionic surfactant, two weeks after treatment
  % Control: 39%
[2]; 20 g/ha, 0.25% Tween 20, two weeks after treatment
  % Control: 94%
[2]; 20 g/ha, no nonionic surfactant, two weeks after treatment
  % Control: 34%
Aspergillus niger
  Minimum Effective Concentration: 100-300 ppm

## COC(=O)c1ccccc1CS(=O)(=O)[N-]C(=O)Nc1nc(OC)cc(OC)n1.C[N+](C)(C)C [C]
[3]; aqueous solution, one week at 54° C.
  degradation of the sulfonylurea: 52%

## COc1cc(OC)nc(NC(=O)NS(=O)(=O)c2ncccc2C(=O)N(C)C)n1 [nicosulfuron, 2-[[[[(4,6-dimethoxy-2-pyrimidinyl)amino]carbonyl]amino]suflonyl]-N,N-dimethyl-3-pyridinecarboxamide]
[4]
  degraded at 720 h: 90%
physchem
  solubility: 12 mg/mL (≈ 29.2 mM)
[5]
  remaining at 864 h: 7%

## CCCCCCCCCCCC[N+](CCCCCCCCCCCC)(CCCCCCCCCCCC)CCCCCCCCCCCC.COc1cc(OC)nc(NC(=O)[N-]S(=O)(=O)c2c(-c3nnn(C)n3)cnn2C)n1 [B]
[6]
  solubility in organic solvents: more than 50%
[3]; 50% solutions in epoxidized soybean oil, methyl caprylate/caprate, and cottonseed oil, 1 week at 54° C.
  relative degradation: 20-45%
